Legend:
human hepatoma G2 cells = assay: Cytotoxicity assay (XTT colorimetric), Hep G2; assay type: cell-based; settings: 48 h of drug exposure
rat glioma C6 cells = assay: Cytotoxicity assay (XTT colorimetric), C6 cells; assay type: cell-based; settings: 48 h of drug exposure
hTERT-BJ1 cells = assay: MTT relative viability, PhTERT-SEAP (hTERT-BJ1) cells; settings: PhTERT-SEAP (hTERT-BJ1)
[1] = system: hepatitis B virus transfected hepatoma cell lines, HepG 2.2.15 cells; assay: Cytotoxicity assay, 2.2.15 cells; assay type: cell-based, human; settings: 48 h of drug exposure
[2] = system: transcriptional activity of hTERT; assay: SEAP reporter assay of hTERT expression, PhTERT-SEAP (hTERT-BJ1); assay type: cell-based, human; settings: PhTERT-SEAP (hTERT-BJ1)
Method in brief: (§1)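 Read-out: rate of absorbance rise at 405 nm from p-nitrophenyl phosphate (12 mM final) hydrolysis by secreted alkaline phosphatase in heat-treated (65° C, 10 min) culture medium. Drugs at varying amounts were applied for 24 h after a 24 h pre-culture at 37° C.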

[3] = system: non-small-cell lung cancer cells H1299; assay: MTT relative viability, PhTERT-SEAP (H1299) cells; settings: PhTERT-SEAP(hTERT-H1299)
[4] = system: transcriptional activity of hTERT; assay: SEAP reporter assay of hTERT expression, PhTERT-SEAP (H1299); assay type: cell-based, human; settings: PhTERT-SEAP(hTERT-H1299)
Method in brief: as §1

Structure (SMILES): O=C(Nc1ccc(NC(=O)c2cccc(F)c2)c2c1C(=O)c1ccccc1C2=O)c1cccc(F)c1 [VI12, 1,4-Bis(3-fluorobenzoylamido)-9,10-anthracenedione]
- IC50 (human hepatoma G2 cells): > 20 µM
- IC50 (rat glioma C6 cells): > 20 µM
- Relative MTT viability (%) (hTERT-BJ1 cells; 2.0 μM): 102 ± 1.5%
- Relative MTT viability (%) (hTERT-BJ1 cells; 20 μM): 97 ± 2.9%
- Relative MTT viability (%) (hTERT-BJ1 cells; 207 μM): 85 ± 2.6%
- IC50 [1]: > 20 µM
- Relative SEAP activity (%) ([2]; 2.0 μM): 107 ± 11.9%
- SEAP/vibility ([2]; 2.0 μM): 1.05
- Relative SEAP activity (%) ([2]; 20 μM): 108 ± 15.5%
- SEAP/vibility ([2]; 20 μM): 1.11
- Relative SEAP activity (%) ([2]; 207 μM): 95 ± 13.9%
- SEAP/vibility ([2]; 207 μM): 1.12
- Relative MTT viability (%) ([3]; 2.0 μM): 105 ± 6.8%
- Relative MTT viability (%) ([3]; 20 μM): 96 ± 7.4%
- Relative MTT viability (%) ([3]; 207 μM): 66 ± 5.5%
- Relative SEAP activity (%) ([4]; 2.0 μM): 102 ± 2.9%
- SEAP/vibility ([4]; 2.0 μM): 0.98
- Relative SEAP activity (%) ([4]; 20 μM): 110 ± 6.5%
- SEAP/vibility ([4]; 20 μM): 1.14
- Relative SEAP activity (%) ([4]; 207 μM): 106 ± 9.4%
- SEAP/vibility ([4]; 207 μM): 1.59

Structure (SMILES): O=C(Nc1ccc(NC(=O)c2c(Cl)cc(Cl)cc2Cl)c2c1C(=O)c1ccccc1C2=O)c1c(Cl)cc(Cl)cc1Cl [VI13, 1,4-Bis(2,4,6-trichlorobenzoylamido)-9,10-anthracenedione]
- IC50 (human hepatoma G2 cells): 2.77 µM
- IC50 (rat glioma C6 cells): > 20 µM
- Relative MTT viability (%) (hTERT-BJ1 cells; 1.5 μM): 98 ± 8.5%
- Relative MTT viability (%) (hTERT-BJ1 cells; 15 μM): 63 ± 7.0%
- Relative MTT viability (%) (hTERT-BJ1 cells; 153 μM): 40 ± 22.2%
- IC50 [1]: 3.63 µM
- Relative SEAP activity (%) ([2]; 1.5 μM): 31 ± 23.0%
- SEAP/vibility ([2]; 1.5 μM): 0.32
- Relative SEAP activity (%) ([2]; 15 μM): 12 ± 12.5%
- SEAP/vibility ([2]; 15 μM): 0.19
- Relative SEAP activity (%) ([2]; 153 μM): 4 ± 15%
- SEAP/vibility ([2]; 153 μM): 0.09
- Relative MTT viability (%) ([3]; 1.5 μM): 113 ± 4.8%
- Relative MTT viability (%) ([3]; 15 μM): 107 ± 5.4%
- Relative MTT viability (%) ([3]; 153 μM): 20 ± 3.3%
- Relative SEAP activity (%) ([4]; 1.5 μM): 98 ± 4.5%
- SEAP/vibility ([4]; 1.5 μM): 0.87
- Relative SEAP activity (%) ([4]; 15 μM): 66 ± 2.4%
- SEAP/vibility ([4]; 15 μM): 0.61
- Relative SEAP activity (%) ([4]; 153 μM): 41 ± 3.9%
- SEAP/vibility ([4]; 153 μM): 0.03

Structure (SMILES): O=C(Nc1ccc(NC(=O)c2c(F)ccc(F)c2F)c2c1C(=O)c1ccccc1C2=O)c1c(F)ccc(F)c1F [VI14, 1,4-Bis(2,3,6-trifluorobenzoylamido)-9,10-anthracenedione]
- IC50 (human hepatoma G2 cells): > 20 µM
- IC50 (rat glioma C6 cells): > 20 µM
- Relative MTT viability (%) (hTERT-BJ1 cells; 1.8 μM): 102 ± 3.3%
- Relative MTT viability (%) (hTERT-BJ1 cells; 18 μM): 90 ± 6.0%
- Relative MTT viability (%) (hTERT-BJ1 cells; 180 μM): 70 ± 6.8%
- IC50 [1]: > 20 µM
- Relative SEAP activity (%) ([2]; 1.8 μM): 35 ± 14.1%
- SEAP/vibility ([2]; 1.8 μM): 0.35
- Relative SEAP activity (%) ([2]; 18 μM): 22 ± 24.4%
- SEAP/vibility ([2]; 18 μM): 0.25
- Relative SEAP activity (%) ([2]; 180 μM): 31 ± 7.9%
- SEAP/vibility ([2]; 180 μM): 0.44
- Relative MTT viability (%) ([3]; 1.8 μM): 111 ± 2.9%
- Relative MTT viability (%) ([3]; 18 μM): 89 ± 3.7%
- Relative MTT viability (%) ([3]; 180 μM): 55 ± 3.3%
- Relative SEAP activity (%) ([4]; 1.8 μM): 91 ± 5.2%
- SEAP/vibility ([4]; 1.8 μM): 0.82
- Relative SEAP activity (%) ([4]; 18 μM): 97 ± 4.1%
- SEAP/vibility ([4]; 18 μM): 1.09
- Relative SEAP activity (%) ([4]; 180 μM): 91 ± 3.3%
- SEAP/vibility ([4]; 180 μM): 1.64

Structure (SMILES): O=C(Nc1ccc(NC(=O)c2cc(F)c(F)cc2F)c2c1C(=O)c1ccccc1C2=O)c1cc(F)c(F)cc1F [VI15, 1,4-Bis(2,4,5-trifluorobenzoylamido)-9,10-anthracenedione]
- IC50 (human hepatoma G2 cells): > 20 µM
- IC50 (rat glioma C6 cells): > 20 µM
- Relative MTT viability (%) (hTERT-BJ1 cells; 1.6 μM): 104 ± 4.5%
- Relative MTT viability (%) (hTERT-BJ1 cells; 16 μM): 89 ± 5.0%
- Relative MTT viability (%) (hTERT-BJ1 cells; 161 μM): 80 ± 3.8%
- IC50 [1]: 3.35 µM
- Relative SEAP activity (%) ([2]; 1.6 μM): 117 ± 14.2%
- SEAP/vibility ([2]; 1.6 μM): 1.12
- Relative SEAP activity (%) ([2]; 16 μM): 114 ± 20.4%
- SEAP/vibility ([2]; 16 μM): 1.29
- Relative SEAP activity (%) ([2]; 161 μM): 115 ± 30.8%
- SEAP/vibility ([2]; 161 μM): 1.44
- Relative MTT viability (%) ([3]; 1.6 μM): 90 ± 6.6%
- Relative MTT viability (%) ([3]; 16 μM): 81 ± 1.9%
- Relative MTT viability (%) ([3]; 161 μM): 60 ± 5.0%
- Relative SEAP activity (%) ([4]; 1.6 μM): 109 ± 10.8%
- SEAP/vibility ([4]; 1.6 μM): 1.20
- Relative SEAP activity (%) ([4]; 16 μM): 118 ± 10.3%
- SEAP/vibility ([4]; 16 μM): 1.45
- Relative SEAP activity (%) ([4]; 161 μM): 104 ± 8.2%
- SEAP/vibility ([4]; 161 μM): 1.73

Structure (SMILES): O=C(Nc1ccc(NC(=O)c2ccc(Cl)cc2)c2c1C(=O)c1ccccc1C2=O)c1ccc(Cl)cc1 [VI16, 1,4-Bis(4-chlorobenzoylamido)-9,10-anthracenedione]
- IC50 (human hepatoma G2 cells): > 20 µM
- IC50 (rat glioma C6 cells): > 20 µM
- Relative MTT viability (%) (hTERT-BJ1 cells; 1.9 μM): 111 ± 0.8%
- Relative MTT viability (%) (hTERT-BJ1 cells; 19 μM): 103 ± 5.9%
- Relative MTT viability (%) (hTERT-BJ1 cells; 194 μM): 99 ± 5.2%
- IC50 [1]: > 20 µM
- Relative SEAP activity (%) ([2]; 1.9 μM): 116 ± 28.6%
- SEAP/vibility ([2]; 1.9 μM): 1.05
- Relative SEAP activity (%) ([2]; 19 μM): 112 ± 21.9%
- SEAP/vibility ([2]; 19 μM): 1.09
- Relative SEAP activity (%) ([2]; 194 μM): 152 ± 39.7%
- SEAP/vibility ([2]; 194 μM): 1.54
- Relative MTT viability (%) ([3]; 1.9 μM): 89 ± 5.5%
- Relative MTT viability (%) ([3]; 19 μM): 89 ± 9.5%
- Relative MTT viability (%) ([3]; 194 μM): 79 ± 5.6%
- Relative SEAP activity (%) ([4]; 1.9 μM): 109 ± 6.8%
- SEAP/vibility ([4]; 1.9 μM): 1.23
- Relative SEAP activity (%) ([4]; 19 μM): 118 ± 5.6%
- SEAP/vibility ([4]; 19 μM): 1.33
- Relative SEAP activity (%) ([4]; 194 μM): 116 ± 12.3%
- SEAP/vibility ([4]; 194 μM): 1.46

Structure (SMILES): O=C(Nc1ccc(NC(=O)c2ccc(F)cc2F)c2c1C(=O)c1ccccc1C2=O)c1ccc(F)cc1F [VI18, 1,4-Bis(2,4-difluorobenzoylamido)-9,10-anthracenedione]
- IC50 (human hepatoma G2 cells): > 20 µM
- IC50 (rat glioma C6 cells): > 20 µM
- Relative MTT viability (%) (hTERT-BJ1 cells; 1.9 μM): 104 ± 5.6%
- Relative MTT viability (%) (hTERT-BJ1 cells; 19 μM): 101 ± 4.4%
- Relative MTT viability (%) (hTERT-BJ1 cells; 192 μM): 103 ± 6.1%
- IC50 [1]: > 20 µM
- Relative SEAP activity (%) ([2]; 1.9 μM): 48 ± 21.7%
- SEAP/vibility ([2]; 1.9 μM): 0.46
- Relative SEAP activity (%) ([2]; 19 μM): 51 ± 18.5%
- SEAP/vibility ([2]; 19 μM): 0.50
- Relative SEAP activity (%) ([2]; 192 μM): 48 ± 23.1%
- SEAP/vibility ([2]; 192 μM): 0.46
- Relative MTT viability (%) ([3]; 1.9 μM): 87 ± 3.7%
- Relative MTT viability (%) ([3]; 19 μM): 85 ± 7.1%
- Relative MTT viability (%) ([3]; 192 μM): 69 ± 8.4%
- Relative SEAP activity (%) ([4]; 1.9 μM): 93 ± 5.6%
- SEAP/vibility ([4]; 1.9 μM): 1.06
- Relative SEAP activity (%) ([4]; 19 μM): 99 ± 5.4%
- SEAP/vibility ([4]; 19 μM): 1.17
- Relative SEAP activity (%) ([4]; 192 μM): 99 ± 1.8%
- SEAP/vibility ([4]; 192 μM): 1.44

Reference: US20050009924A1 (priority 2003, published 2005)
